The subject of the test is TNF-α-induced IL-6 production in normal human skin fibroblast-derived CCD-1059Sk cells. Kind of test: Test for measurement of inhibitory activity against TNF-α-induced IL-6 production in CCD-1059Sk cells (HTRF Human IL-6 kit). It is filed as cell-based. The conditions noted are these: test compound at 10 μM; TNF-α-stimulated CCD-1059Sk cells, 16 hours; inhibition ratio which is 100% or more is indicated to be 100%. The procedure:
1. Test for Measurement of Inhibitory Activity Against IL-6 Production
An inhibitory effect on TNF-α-induced IL-6 production in normal human skin fibroblast-derived CCD-1059Sk cells (ATCC No. CRL-2072) was evaluated. The amount of IL-6 was determined by the homogeneous time-resolved fluorescence method using HTRF™ Human IL-6 kit (Cat. No. 62IL6PEB, manufactured by CIS-Bio international, Inc.). Specific test methods will be described below.
(Preparation of Test Compound Solution)
After a test compound was dissolved in dimethyl sulfoxide, the resulting solution was diluted with D-MEM medium containing 0.1% heat-inactivated fetal bovine serum, 0.1 mM MEM non-essential amino acid solution, 100 U/mL penicillin and 100 μg/mL streptomycin (hereinafter referred to as “medium”), whereby a 40 μM test compound solution was prepared.
(Test Method and Measurement Method)
1) CCD-1059Sk cells prepared at a density of 3×10^5 cells/mL were inoculated in a 384-well plate in an amount of 10 μL per well such that the cell density was 3×10^3 cells/well.
2) After the plate was incubated at 37° C. for several hours in a CO2 incubator, 5 μL of the test compound solution was added to each well.
3) After the plate was incubated at 37° C. for 1 hour in a CO2 incubator, 5 μL of a 40 ng/mL TNF-α solution was added to each well.
4) After the plate was incubated at 37° C. for 16 hours in a CO2 incubator, 10 μL of a cryptate-labeled anti-IL-6 antibody and an XL665-labeled anti-IL-6 antibody containing potassium fluoride were added to each well.
5) After the plate was incubated at room temperature for several hours, a fluorescence intensity ratio (665 nm/620 nm) was determined for each well using a multimode plate reader Analyst™ HT (manufactured by Molecular Device Corporation) and Criterion Host software version 2.00 (manufactured by Molecular Device Corporation), and then, the amount of IL-6 was calculated.
6) The same procedures as in the above 1) to 5) were performed except that 0.4% dimethyl sulfoxide was added in place of the test compound, and the obtained result was designated as the control.
7) The same procedures as in the above 1) to 5) were performed except that 0.4% dimethyl sulfoxide and the medium were added in place of the test compound and the TNF-α solution, respectively, and the obtained result was designated as the background.
(Calculation Formula of IL-6 Production Inhibition Ratio)
An IL-6 production inhibition ratio (%) was calculated from the following equation. IL-6 Production Inhibition Ratio(%)=100×{1−[(Amount of IL-6 for Test Compound)−(Amount of IL-6 for Background)]/[(Amount of IL-6 for Control)−(Amount of IL-6 for Background)]} (Evaluation Results)
In general terms: In TR-FRET formats the signal depends on donor and acceptor labels being close together.

`NC(=O)Nc1[nH]c(-c2ccc3ccccc3c2)cc1C(N)=O` [Compound No. 1-1, 2-Aminocarbonylamino-5-(2-naphthyl)pyrrole-3-carboxamide]: the “IL-6 production inhibition ratio (%)” value turned out to be 90%.

As for `NC(=O)Nc1[nH]c(-c2cc3ccccc3o2)cc1C(N)=O` [Compound No. 1-5, 2-Aminocarbonylamino-5-(benzofuran-2-yl)pyrrole-3-carboxamide], the “IL-6 production inhibition ratio (%)” value came out at 98%.

Turning to `NC(=O)Nc1[nH]c(-c2ccc3sccc3c2)cc1C(N)=O` [Compound No. 1-6, 2-Aminocarbonylamino-5-(benzothiophen-5-yl)pyrrole-3-carboxamide], the “IL-6 production inhibition ratio (%)” value was 95%.

As to `NC(=O)Nc1[nH]c(-c2ccc3occc3c2)cc1C(N)=O` [Compound No. 1-8, 2-Aminocarbonylamino-5-(benzofuran-5-yl)pyrrole-3-carboxamide], the “IL-6 production inhibition ratio (%)” value stood at 86%.

With `NC(=O)Nc1[nH]c(-c2cccc3c2OCCO3)cc1C(N)=O` [Compound No. 1-12, 2-Aminocarbonylamino-5-(2,3-dihydro-1,4-benzodioxin-5-yl)pyrrole-3-carboxamide], the “IL-6 production inhibition ratio (%)” value is on record as 97%.

Regarding `Cc1c(-c2cc(C(N)=O)c(NC(N)=O)[nH]2)sc2ccccc12` [Compound No. 1-15, 2-Aminocarbonylamino-5-(3-methylbenzothiophen-2-yl)pyrrole-3-carboxamide], the “IL-6 production inhibition ratio (%)” value is given as 98%.

Consider `NC(=O)Nc1[nH]c(-c2cccc3c2OCC3)cc1C(N)=O` [Compound No. 3-1, 2-Aminocarbonylamino-5-(2,3-dihydrobenzofuran-7)pyrrole-3-carboxamide], for which the “IL-6 production inhibition ratio (%)” value is on record as at least 100%.

The values are drawn from patent US8088817B2, “Pyrrole derivative having, as substituents, ureido group, aminocarbonly group and bicyclic group which may have substituent” (Santen Pharmaceutical Co., Ltd., priority 2008, dated 2012).
